Test systems include HCT-15; SNB-19; DMS-273; SK-OV-3; SN12C; OVCAR-4; UACC-257; TK-10; MOLT-4; SW-620; Malme-3M; M14; U-251; NCI-H23; SK-MEL-5; LOX IMVI; DLD-1; DU-145; PC-3; CAKI-1.
Assay in all cases: inhibition of tumour cell growth, NCI panel, 48 h

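48-hour exposure; five concentrations; linearly interpolated endpoints. GI50: concentration for 50% inhibition of growth.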 The source made the active and inactive calls. No stated cut-off is given here; in the data, active = GI50 up to about 1.1 µM and inactive = higher. Some results are limits rather than exact numbers.

Take `C[C@@H](N[C@H]1CCC[C@@H]1O)c1ccccc1.C[C@@H](N[C@H]1CCC[C@H]1O)c1ccccc1`: the GI50 is > 100 µM with HCT-15; 71.8 µM (inactive) in the assay on SNB-19; > 100 µM (inactive) in the assay with DMS-273; > 100 µM (inactive) with SK-OV-3; > 100 µM (inactive) in the assay with SN12C; > 100 µM (inactive) with OVCAR-4. The GI50 is > 100 µM (inactive) in the assay with UACC-257; 90.4 µM (inactive) in the assay on TK-10; 51.5 µM (inactive) in the assay on MOLT-4; 61.4 µM (inactive) in the assay with SW-620; > 100 µM (inactive) in the assay with Malme-3M; 49 µM (inactive) in the assay on M14. Moreover, the GI50 in the assay with U-251 is 48.1 µM (inactive); in the assay with NCI-H23, > 100 µM (inactive); in the assay on SK-MEL-5, 57.7 µM (inactive); in the assay with LOX IMVI it was 34.4 µM (inactive).
As to `NNC(=S)N/N=C(\CCCC(=O)NCCc1ccccc1)CC(=O)c1ccccc1`, the GI50 was > 100 µM in the assay with HCT-15; > 100 µM (inactive) in the assay on SNB-19; > 100 µM (inactive) in the assay with SN12C; > 100 µM (inactive) in the assay on DLD-1; > 100 µM (inactive) in the assay on OVCAR-4; > 100 µM (inactive) in the assay with UACC-257. Further, the GI50 in the assay with TK-10, in the assay with SW-620, in the assay with Malme-3M, with M14, in the assay on U-251 and in the assay with NCI-H23 was > 100 µM (inactive) each time. Also, the GI50 in the assay with SK-MEL-5 was > 100 µM (inactive).
`Oc1c(C(Nc2ccccn2)c2ccccc2)ccc2cccnc12` (stereo not given): the GI50 was 4.05 µM (inactive) in the assay with DU-145; 1.98 µM with HCT-15; 5.51 µM (inactive) with SNB-19; 3.39 µM (inactive) with PC-3; 9.4 µM (inactive) with SK-OV-3; 1.24 µM (inactive) in the assay with SN12C. In addition, the GI50 in the assay with OVCAR-4 was 3.5 µM (inactive); with UACC-257, 7.8 µM (inactive); in the assay on TK-10 it was 4.99 µM (inactive); in the assay with MOLT-4, 2.39 µM (inactive); in the assay with SW-620 it was 7.13 µM (inactive); in the assay on Malme-3M, 1.46 µM (inactive). Moreover, the GI50 with M14 is 3.08 µM (inactive); in the assay on U-251, 2.72 µM (inactive); in the assay on NCI-H23 it was 3.6 µM (inactive); with SK-MEL-5 it was 3.66 µM (inactive); with CAKI-1, 4.09 µM (inactive); in the assay with LOX IMVI it was 2.77 µM (inactive).
As for `CCC(c1c[nH]c2ccc(Br)cc12)c1c[nH]c2ccc(Br)cc12`, the GI50 is 2.88 µM (inactive) with DU-145; 4.01 µM in the assay with HCT-15; 8.57 µM (inactive) with SNB-19; 4.81 µM (inactive) with PC-3; 11.9 µM (inactive) in the assay with SK-OV-3; 3.7 µM (inactive) in the assay on SN12C. In addition, the GI50 is 2.75 µM (inactive) in the assay on OVCAR-4; 11.6 µM (inactive) in the assay with UACC-257; 10.9 µM (inactive) with TK-10; 1.94 µM (inactive) in the assay with MOLT-4; 3.94 µM (inactive) with SW-620; 10.6 µM (inactive) in the assay with Malme-3M. The GI50 was 3.22 µM (inactive) with M14; 3.72 µM (inactive) in the assay with U-251; 2.96 µM (inactive) with NCI-H23; 8.11 µM (inactive) in the assay with SK-MEL-5; 2.45 µM (inactive) with CAKI-1; 2.44 µM (inactive) in the assay on LOX IMVI.
As to `C=C1C[C@@H]2CC[C@@]34CC5O[C@H]6C(O[C@H]7CC[C@H](CC(=O)O[C@@H]8[C@@H](C)[C@@H]9O[C@@H]%10C[C@]%11(C[C@@H]%12O[C@]%13(C[C@H](C)[C@@H]%14O[C@@H]%15CC(C(O)CO)O[C@@H]%15C[C@@H]%14O%13)C[C@H](C)[C@@H]%12O%11)O[C@@H]%10C[C@@H]9O[C@H]8CC8O[C@@H](CC[C@@H]1O2)C[C@@H](C)C8(O)CO)O[C@@H]7[C@@H]6O3)[C@H]5O4` (stereo not given in full), the GI50 was > 0.916 µM (active) in the assay with DU-145; > 0.638 µM in the assay on HCT-15; > 1 µM (active) in the assay on SNB-19; 0.995 µM (active) in the assay with PC-3; > 1 µM (active) with SK-OV-3; > 1 µM (active) in the assay on SN12C. Besides, the GI50 was > 1 µM (active) in the assay with OVCAR-4; > 1 µM (active) in the assay with UACC-257; > 0.45 µM (active) with TK-10; > 1 µM (active) with MOLT-4; > 0.736 µM (active) with SW-620; 0.394 µM (active) in the assay with Malme-3M. Also, the GI50 with M14 is > 0.944 µM (active); in the assay on U-251, > 1 µM (active); in the assay on NCI-H23, > 0.473 µM (active); in the assay on SK-MEL-5, 0.624 µM (active); with CAKI-1, > 1 µM (active); in the assay with LOX IMVI, 0.48 µM (active).
As to `O=C1CSC(c2ccc(Cl)cc2)N1c1ccc(Oc2ccc(Cl)cc2)c(Cl)c1` (stereo not given), the GI50 in the assay on DU-145 was 13.1 µM (inactive); in the assay on HCT-15, 15.8 µM; in the assay with SNB-19, 15.6 µM (inactive); in the assay on PC-3, 15.2 µM (inactive); in the assay on SK-OV-3, 17.6 µM (inactive); in the assay on SN12C it was 20 µM (inactive). Besides, the GI50 with OVCAR-4 was 14.7 µM (inactive); in the assay with UACC-257, 18.2 µM (inactive); in the assay with TK-10 it was 18.7 µM (inactive); in the assay with MOLT-4 it was 14.2 µM (inactive); with SW-620, 18.3 µM (inactive); with Malme-3M, 7.66 µM (inactive). Further, the GI50 with M14 is 16.7 µM (inactive); in the assay on U-251 it was 16.6 µM (inactive); in the assay with NCI-H23 it was 16.9 µM (inactive); with SK-MEL-5, 17.1 µM (inactive); with CAKI-1 it was 13.3 µM (inactive); with LOX IMVI it was 15.2 µM (inactive).
With `C=CCN(c1cc(OC)c2[nH]c(C(=O)O)c(C)c2c1[N+](=O)[O-])S(C)(=O)=O`, the GI50 was > 100 µM (inactive) in the assay on DU-145; > 100 µM in the assay with HCT-15; > 100 µM (inactive) in the assay on SNB-19; > 100 µM (inactive) in the assay on PC-3; > 100 µM (inactive) in the assay with SK-OV-3; 54.3 µM (inactive) in the assay with SN12C. Besides, the GI50 in the assay with OVCAR-4 is > 100 µM (inactive); in the assay with UACC-257, > 100 µM (inactive); with TK-10 it was > 100 µM (inactive); with MOLT-4, > 100 µM (inactive); in the assay with SW-620, > 100 µM (inactive); in the assay on Malme-3M, 9.79 µM (inactive). In addition, the GI50 in the assay with M14, in the assay on U-251, with NCI-H23, in the assay on SK-MEL-5, in the assay on CAKI-1 and in the assay with LOX IMVI was > 100 µM (inactive) throughout.
Turning to `C(/C=N/c1ccccc1)=C(/Nc1ccccc1)c1ccc2ccccc2c1`, the GI50 is 2.02 µM (inactive) with DU-145; 1.06 µM with HCT-15; 2.29 µM (inactive) in the assay on SNB-19; 1.55 µM (inactive) with PC-3; 2.76 µM (inactive) in the assay on SK-OV-3; 1.6 µM (inactive) in the assay with SN12C. In addition, the GI50 is 1.99 µM (inactive) with OVCAR-4; 4.55 µM (inactive) in the assay on UACC-257; 1.45 µM (inactive) in the assay with TK-10; 1 µM (active) in the assay on MOLT-4; 3.88 µM (inactive) with SW-620; 1.78 µM (inactive) in the assay with Malme-3M. Moreover, the GI50 with M14 was 1.87 µM (inactive); with U-251, 2.65 µM (inactive); in the assay on NCI-H23, 2.13 µM (inactive); in the assay with SK-MEL-5 it was 2.63 µM (inactive); with CAKI-1 it was 0.667 µM (active); in the assay on LOX IMVI it was 1.53 µM (inactive).
As for `COC1/C=C/C(C)C(OC)CC(O)/C=C/C(C)C(C(C)C(OC)C(C)CCC(=O)C(C)C(C/C=C/N(C)C=O)OC)OC(=O)/C=C/C=C(\C)CC(OC)C(OC)C2=CC(=O)O[C@@H](C(C)C(OC)C1)[C@H]2O` (stereo not given in full), the GI50 was 0.0959 µM (active) in the assay on DU-145; 0.015 µM in the assay with HCT-15; 0.0519 µM (active) with SNB-19; 0.0337 µM (active) in the assay on PC-3; 0.0436 µM (active) in the assay on SK-OV-3; 0.0498 µM (active) in the assay on SN12C. In addition, the GI50 in the assay with OVCAR-4 is 0.0421 µM (active); with UACC-257, 0.0448 µM (active); in the assay on TK-10, 0.0548 µM (active); in the assay with MOLT-4, 0.0681 µM (active); in the assay on SW-620, 0.0361 µM (active); in the assay on Malme-3M it was 0.04 µM (active). For the same molecule, the GI50 was 0.0384 µM (active) in the assay with M14; 0.0303 µM (active) with U-251; 0.0512 µM (active) with NCI-H23; 0.0387 µM (active) with SK-MEL-5; 0.0148 µM (active) with CAKI-1; 0.00791 µM (active) in the assay with LOX IMVI.
Consider `COc1ccc(OC)c(CC(C)N)c1` (stereo not given), for which the GI50 in the assay with HCT-15 is > 100 µM; with SNB-19 it was > 100 µM (inactive); in the assay on SK-OV-3, > 100 µM (inactive); in the assay on SN12C it was > 100 µM (inactive); with DLD-1, > 100 µM (inactive); in the assay on OVCAR-4, > 100 µM (inactive). Besides, the GI50 with UACC-257, in the assay with TK-10, in the assay with MOLT-4, with SW-620, in the assay with Malme-3M and in the assay with M14 was > 100 µM (inactive) each time. In addition, the GI50 in the assay with U-251, with NCI-H23, in the assay on SK-MEL-5, with CAKI-1 and with LOX IMVI was > 100 µM (inactive) throughout.
Consider `CN1C(=O)c2ccccc2OC12C=Cc1c(ccc3ccccc13)O2` (stereo not given), for which the GI50 was 8 µM (inactive) in the assay with DU-145; 2.95 µM in the assay on HCT-15; 4.49 µM (inactive) with SNB-19; 3.27 µM (inactive) with PC-3; 5.78 µM (inactive) in the assay with SK-OV-3; 15.2 µM (inactive) in the assay with SN12C. The GI50 was 5.56 µM (inactive) in the assay with OVCAR-4; 8.3 µM (inactive) in the assay on UACC-257; 7.82 µM (inactive) with TK-10; 3.53 µM (inactive) with MOLT-4; 3.64 µM (inactive) with SW-620; 0.328 µM (active) in the assay with Malme-3M. In addition, the GI50 was 3.03 µM (inactive) in the assay on M14; 3.42 µM (inactive) with U-251; 4.05 µM (inactive) in the assay on NCI-H23; 6.05 µM (inactive) in the assay on SK-MEL-5; 5.66 µM (inactive) in the assay with CAKI-1; 5.93 µM (inactive) in the assay with LOX IMVI.

(Values after ChEMBL document CHEMBL1201862, “PubChem BioAssay data set” (2004).)
